{
  "source": "patent US10905704B2",
  "about": "“Agents and methods using thereof for the prevention and treatment of stem cell muscle disorders” (ECOLE POLYTECHNIQUE FEDERALE DE LAUSANNE (EPFL), priority 2015, dated 2021)",
  "key": {"MuSCs [1]": {"system": "MuSCs", "experiment": "Senescence marker staining of MuSCs from Mdx mice (β-galactosidase, γH2AX, cleaved caspase-3)", "type": "cell-based", "conditions": "for senescence by β-galactosidase staining: FIG. 6J", "method": "β-galactosidase assay. MuSCs were sorted directly and cultured primary MuSCs were grown on 8 chamber slides (Thermo Scientific). Senescence-associated β-galactosidase activity was detected using the senescence β-galactosidase staining kit (Cell signaling), according to manufacturer's instructions. Cardiotoxin-induced muscle damage and Histology as described in Example 2. The following antibodies were used: anti-eMHC (Developmental Studies Hybridoma Bank, DSHB, University of Iowa), anti-Pax7 (DSHB, University of Iowa), anti-γH2AX […] (Millipore) and anti-activated-caspase3 (Cell signaling)."}, "[2]": {"system": "muscle stem cells (MuSCs)", "experiment": "MuSC numbers in muscle of NR-fed young and aged mice (FACS, PAX7 staining)", "type": "in vivo, C57BL/6J mice", "conditions": "for MuSC numbers (FACS): NR 400 mg/kg/day in diet for 6 weeks, FIG. 3A-C", "method": "Animals. Young (1 month old) and aged (20-24 months old) C57BL/6JRj mice, purchased from Janvier Labs, and five weeks old male C57BL/10SnJ mice or C57BL/10ScSn-Dmdmdx/J, purchased from The Jackson Laboratory, were fed with pellets containing vehicle or NR (400 mg/kg/day) for 6-8 weeks. The pellets were prepared by mixing powdered chow diet (D12450B, Research Diets Inc.) with water or with NR dissolved in water. Pellets were dried under a laminar flow hood for 48 hours. All mice were housed in micro-isolator cages in a room illuminated from 7:00 am -7:00 pm with ad libitum access to diet and water. FACS based muscle stem cell isolation. Gastrocnemius, soleus, quadriceps, and tibialis anterior muscles from both limbs were excised and transferred into PBS on ice. All muscles were trimmed, minced and digested with 0.1 mg/ml of type II collagenase (Sigma) in PBS for 15 min at 37° C. Samples were then centrifuged at 750 g for 5 min and further digested in 1 mg/ml of collagenase/dispase (Roche) for 30 mins at 37° C. Muscle slurries were sequentially filtered through 100, 70 and 40 μm cell strainers. The isolated cells were then washed in washing buffer (PBS+2.5% FBS) then resuspended in 200 μl of washing buffer and immediately stained with antibodies, including the MuSC markers CD31 (1:800, eBioscience, eFluor450 conjugated); CD34 (1:200, eBioscience, eFluor660 conjugated); CD45 (1:200, eBioscience, eFluor450 conjugated); CD11b (1:400, eBioscience, eFluor450 conjugated); Sca-1 (1:1000, eBioscience, PE-Cy7 conjugated); and α7 integrin (1:300, MBL) for 30 min at 4° C. Secondary staining was performed with a mixture of goat anti-mouse antibody (1:800, Life technologies, Alexa Fluor 488 conjugated) and propidium Iodide (PI, Sigma) for 15 min at 4° C. in the dark. Stained cells were analysed and sorted using the FACSAria II instrument (BD Biosciences). Debris and dead cells were excluded by forward scatter, side scatter and PI gating. Cells were sorted either directly on slides for immunostaining and into TriPure (Roche) reagent for RNA extraction. Histology. […]"}, "MuSCs [3]": {"system": "MuSCs", "experiment": "Gene expression analyses (qPCR) in freshly isolated MuSCs of NR-treated mice", "type": "cell-based, C57BL/6J mice", "method": "Gene expression analyses. Total RNA was extracted from MuSCs by sorting cells directly into TriPure RNA isolation reagent (Roche) or from cultured C2C12 myoblasts using TriPure reagent according to the product manual. Total RNA was transcribed to cDNA using QuantiTect Reverse Transcription Kit (Qiagen). Expression of selected genes was analyzed using the LightCycler480 system (Roche) and LightCycler® 480 SYBR Green I Master reagent (Roche). The acidic ribosomal protein 36b4 gene (ribosomal protein, large, P0, Rp1p0) was used as housekeeping reference. FACS based muscle stem cell isolation. Gastrocnemius, soleus, quadriceps, and tibialis anterior muscles from both limbs were excised and transferred into PBS on ice. All muscles were trimmed, minced and digested with 0.1 mg/ml of type II collagenase (Sigma) in PBS for 15 min at 37° C. Samples were then centrifuged at 750 g for 5 min and further digested in 1 mg/ml of collagenase/dispase (Roche) for 30 mins at 37° C. Muscle slurries were sequentially filtered through 100, 70 and 40 μm cell strainers. The isolated cells were then washed in washing buffer (PBS+2.5% FBS) then resuspended in 200 μl of washing buffer and immediately stained with antibodies, including the MuSC markers CD31 (1:800, eBioscience, eFluor450 conjugated); CD34 (1:200, eBioscience, eFluor660 conjugated); CD45 (1:200, eBioscience, eFluor450 conjugated); CD11b (1:400, eBioscience, eFluor450 conjugated); Sca-1 (1:1000, eBioscience, PE-Cy7 conjugated); and α7 integrin (1:300, MBL) for 30 min at 4° C. Secondary staining was performed with a mixture of goat anti-mouse antibody (1:800, Life technologies, Alexa Fluor 488 conjugated) and propidium Iodide (PI, Sigma) for 15 min at 4° C. in the dark. Stained cells were analysed and sorted using the FACSAria II instrument (BD Biosciences). Debris and dead cells were excluded by forward scatter, side scatter and PI gating. Cells were sorted either directly on slides for immunostaining and into TriPure (Roche) reagent for RNA extraction."}, "Grip strength test": {"experiment": "Grip strength test", "type": "in vivo, C57BL/6J mice", "conditions": "aged mice, NR diet, FIG. 3G", "method": "Grip strength test. Muscle strength was assessed by a grip strength behavior task. The grasp strength of each mouse for all four limbs was measured on a pull-grid assembly connected to a grip strength meter (Columbus Instruments). The mouse was drawn along a straight line parallel to the grid until the grip is broken, providing the peak force in grams. This was repeated 4 times with 5 minute intervals between measurements."}, "[4]": {"conditions": "MuSCs of NR-treated Mdx mice, cultured three generations, FIG. 6K"}, "[5]": {"conditions": "freshly isolated aged MuSCs, NR diet, FIG. 4H"}},
  "data": [
    {"smiles": "NC(=O)c1ccc[n+]([C@@H]2O[C@H](CO)[C@@H](O)[C@H]2O)c1", "note": "[NR, nicotinamide riboside]", "values": [
      {"measurement": "senescence by β-galactosidase staining", "setting": "MuSCs [1]; MuSCs from Mdx mice additionally treated with NR in vitro (6 hours)", "value": "further reduction in senescence"},
      {"measurement": "senescence by β-galactosidase staining", "setting": "MuSCs [1]; MuSCs isolated from NR-treated Mdx mice", "value": "less prone to senescence"},
      {"measurement": "cleaved caspase-3 immunostaining", "setting": "MuSCs [1]; [4]", "value": "attenuation"},
      {"measurement": "γH2AX immunostaining", "setting": "MuSCs [1]; [4]", "value": "attenuation"},
      {"measurement": "MuSC numbers (FACS)", "setting": "[2]; aged mice", "value": "attenuated the loss of MuSC numbers during aging"},
      {"measurement": "MuSC numbers by PAX7 staining of TA muscle", "setting": "[2]; aged mice, NR diet, FIG. 3D", "value": "increase in aged MuSC numbers was confirmed"},
      {"measurement": "MuSC numbers (FACS)", "setting": "[2]; young mice", "value": "evoking gains in younger mice"},
      {"measurement": "mitochondrial TCA and OXPHOS gene expression", "setting": "MuSCs [3]; aged MuSCs, NR diet, FIG. 4I", "value": "largely rescued"},
      {"measurement": "expression of cell cycle related genes", "setting": "MuSCs [3]; [5]", "value": "increasing the expression of cell cycle related genes"},
      {"measurement": "mRNA levels of CDKN1A and related senescence indicators", "setting": "MuSCs [3]; [5]", "value": "significantly reduced"},
      {"measurement": "Phb1 and Phb2 expression", "setting": "MuSCs [3]; young and aged MuSCs, NR 400 mg/kg/day 6 weeks, FIG. 5B", "value": "induced Phb1 and Phb2 expression"},
      {"measurement": "limb grip strength", "setting": "Grip strength test", "value": "improvements"}
    ]}
  ]
}
